Results published in ChEMBL document CHEMBL4130435, “Acetylcholinesterase Inhibitory Alkaloids from the Whole Plants of Zephyranthes carinata” (J Nat Prod, 2017).

Target: Acetylcholinesterase (Homo sapiens, UniProt P22303)
Experiment: Inhibition of AChE (unknown origin)

Acetylcholinesterase, sequence (P22303 whole entry): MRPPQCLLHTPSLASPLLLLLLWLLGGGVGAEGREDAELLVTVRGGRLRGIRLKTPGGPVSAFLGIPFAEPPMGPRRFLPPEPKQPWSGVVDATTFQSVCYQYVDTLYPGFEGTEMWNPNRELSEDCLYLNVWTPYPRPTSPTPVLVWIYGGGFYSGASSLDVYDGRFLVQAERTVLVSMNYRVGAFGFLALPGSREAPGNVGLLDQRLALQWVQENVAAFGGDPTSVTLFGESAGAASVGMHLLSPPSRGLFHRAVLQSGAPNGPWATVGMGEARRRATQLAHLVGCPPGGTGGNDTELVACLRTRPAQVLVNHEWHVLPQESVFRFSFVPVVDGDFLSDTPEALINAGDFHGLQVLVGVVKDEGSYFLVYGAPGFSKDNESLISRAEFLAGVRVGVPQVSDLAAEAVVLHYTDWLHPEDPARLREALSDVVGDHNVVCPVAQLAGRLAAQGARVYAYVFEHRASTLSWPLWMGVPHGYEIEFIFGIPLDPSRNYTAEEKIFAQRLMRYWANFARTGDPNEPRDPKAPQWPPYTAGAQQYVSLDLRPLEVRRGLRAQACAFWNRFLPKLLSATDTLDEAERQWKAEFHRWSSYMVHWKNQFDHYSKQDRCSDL

Row | Compound | IC50
1 | CO[C@@H]1C=C[C@@]23c4cc5c(cc4CN(CCC(C)C)[C@@H]2C(=O)N(C)[C@H]3C1)OCO5 | > 200 µM
2 | COc1ccc2c3c1O[C@H]1C[C@@H](O)CC[C@@]31CC[N@@+](C)([O-])C2 | > 200 µM
3 | CO[C@@H]1C=C[C@@]23c4cc5c(cc4CN(C)[C@@H]2C(=O)N(C)[C@H]3C1)OCO5 | > 200 µM
4 | CO[C@@H]1C=C[C@@]23c4cc5c(cc4C(=O)N(C)[C@@H]2C(=O)N(C)[C@H]3C1)OCO5 | > 200 µM
5 | CO[C@@H]1C=C[C@@]23c4cc5c(cc4CN(CCc4ccc(O)cc4)[C@@H]2C(=O)N(C)[C@H]3C1)OCO5 | > 200 µM
6 | COc1cc2c(cc1O)[C@@H]1[C@H](O)[C@@H](O)C=C3CCN(C2)[C@H]31 [PSEUDOLYCORINE] | 188 µM
7 | CN[C@H]1C[C@H](OC)C=C[C@@]12C(=O)N(CCC(C)C)Cc1cc3c(cc12)OCO3 | > 200 µM
8 | COc1cc2c(cc1OC)[C@@H]1[C@H](O)[C@@H](OC)C=C3CCN(C2)[C@H]31 [GALANTHINE] | 6.1 µM
9 | CO[C@@H]1C=C[C@@]23c4cc5c(cc4C(=O)N(CCC(C)C)[C@@H]2CN(C)[C@@H]3C1)OCO5 | > 200 µM
10 | CO[C@@H]1C=C[C@@]23c4cc5c(cc4C[N@@+]([O-])(CCO)[C@@H]2C(=O)N(C)[C@H]3C1)OCO5 | 126 µM
11 | COc1ccc2c3c1O[C@H]1C[C@H](O)CC[C@@]31CCN(C)C2 | 57.9 µM
12 | CO[C@@H]1C=C[C@@]23c4cc5c(cc4CN(CCc4ccccc4)[C@@H]2C(=O)N(C)[C@H]3C1)OCO5 | > 200 µM
13 | COc1cc2c(cc1O)[C@@H]1[C@H](O)[C@@H](OC)C=C3CCN(C2)[C@H]31 | > 200 µM
14 | COc1ccc2c3c1O[C@H]1C[C@@H](O)C=C[C@@]31[C@H](O)C[N@@+](C)([O-])C2 | > 200 µM
15 | COc1cc2c(cc1OC)[C@@H]1[C@H](O)[C@@H](OC)C=C3CC[N@+]([O-])(C2)[C@H]31 | > 200 µM
16 | CO[C@@H]1C=C[C@@]2(CN(CCC(C)C)Cc3cc4c(cc32)OCO4)[C@@H](N(C)C=O)C1 | > 200 µM
17 | COc1cc2c3c(c1)c1cc(=O)c(OC)cc-1cn3CC2 | 35.6 µM
18 | COc1cc2c(cc1O)[C@@H]1[C@H](O)[C@@H](OC)C=C3CC[N@@+]([O-])(C2)[C@H]31 | > 200 µM
19 | CO[C@@H]1C=C[C@@]23c4cc5c(cc4C(=O)N(CCC(C)C)[C@@H]2C(=O)N(C)[C@H]3C1)OCO5 | > 200 µM
20 | CO[C@@H]1C=C[C@@]23c4cc5c(cc4CN(CCC(C)C)[C@]2(C(C)=O)C(=O)N(C)[C@H]3C1)OCO5 | > 200 µM
21 | O[C@H]1[C@H]2c3cc4c(cc3CN3CCC(=C[C@@H]1O)[C@H]23)OCO4 [LYCORINE] | > 200 µM
22 | CO[C@@H]1C=C[C@@]23c4cc5c(cc4C[N@@+]([O-])(CCc4ccccc4)[C@@H]2C(=O)N(C)[C@H]3C1)OCO5 | > 200 µM
23 | COc1ccc2c3c1O[C@H]1C[C@@H](O)CC[C@@]31CCN(C)C2 | 20.1 µM
24 | CO[C@@H]1C=C[C@@]23c4cc5c(cc4C[N@@+]([O-])(CCc4ccc(O)cc4)[C@@H]2C(=O)N(C)[C@H]3C1)OCO5 | > 200 µM
